The values that follow come from patent publication US20240002393A1, “SUBSTITUTED BENZO[f][l ,2,4JTRIAZOL0[4,3-a][l ,4J[…] GABA A GAMMA! POSITIVE ALLOSTERIC MODULATORS” (Hoffmann-La Roche Inc., priority 2020, published 2024).

In experiment [1] the target is human GABAA α5β2γ1 receptor (Homo sapiens (Human), UniProt P31644+Q8N1C3). The experiment in a line: Radioligand binding assay, [3H]RO7239181 competition, γ1-containing GABAA subtypes. Particulars: HEK293F membranes, mean of two determinations. As for the experimental part: The affinity of compounds at GABAA γ1 subunit-containing receptors was measured by competition for [^3H]RO7239181 (67.3 Ci/mmol; Roche) binding to membranes from HEK293F cells (ThermoFisher R79007) expressing human (transiently transfected) receptors of composition α5β2γ1, α2β2γ1, α1β2γ1. For better protein expression of the α2 subunit-containing receptors, the 28 amino acid long signal peptide (Met1 to Ala28) of the human GABAA α2 subunit was substituted by the 31 amino acid long signal peptide (Met1 to Ser31) of human GABAA α5 subunit.
Harvested pellets from HEK293F cells expressing the different GABAA receptor subtypes were resuspended in Mannitol Buffer pH 7.2-7.4 (Mannitol 0.29M, Triethylamine 10 mM, Acetic acid 10 mM, EDTA 1 mM plus protease inhibitors (20 tablets Complete, Roche Diagnostics Cat. No. 05 056 489 001 per liter)), washed two times and then resuspended at 1:10 to 1:15 dilution in the same buffer. Cell disruption was performed by stirring the suspension in a Parr vessel #4637 at 435 psi for 15 minutes, and then the suspensions were centrifuged at 1000×g for 15 minutes at 4° C. (Beckman Avanti J-HC; rotor JS)-4.2). The supernatant (S1) was transferred in a 21 Schott flask and the pellet (P1) was resuspended with Mannitol Buffer up to 175 ml. The resuspended pellet was transferred into a 250 ml Corning centrifugal beaker and centrifuged at 1500×g for 10 minutes at 4° C. (Beckman Avanti J-HC; rotor JS)-4.2). The supernatant (S1) was then transferred in the 21 Schott flask and the pellet was discarded. The supernatants (S1) were centrifuged in 500 ml Beckman polypropylene centrifugal beaker at 15,000×g for 30 minutes at 4° C. (Beckman Avanti J-20 XP; rotor JLA-10.500). The pellet (P2) was resuspended with Mannitol Buffer 1:1 and frozen at −80° C. The supernatant (S2) was centrifuged in 100 ml Beckman polypropylene centrifugal tubes at 48000×g for 50 minutes at […] (Beckman Avanti J-20 XP; rotor JA-18). The supernatant (S3) was discarded and the pellet (P3) was resuspended with 1:1 Mannitol Buffer. The P2 and P3 protein concentration was determined with the BIORAD Standard assay method with bovine serum albumin as standard and measured on the NANO-Drop 1000. The membrane suspension was aliquots (500 μl per tube) and stored at −80° C. until required.
Membrane homogenates were resuspended and polytronised (Polytron PT1200E Kinematica AG) in Potassium Phosphate 10 mM, KCl 100 mM binding buffer at pH 7.4 to a final assay concentration determined with a previous experiment.
Radioligand binding assays were carried out in a volume of 200 µL (96-well plates) which contained 100 μL of cell membranes, [^3H]RO7239181 at a concentration of 1.5 nM (α5β2γ1) or 20-30 nM (α1β2γ1, 2β2γ1) and the test compound in the range of [0.3-10000]×10^−9 M. Nonspecific binding was defined by 10×10^−6 (α5β2γ1) and 30×10^−6 M RO7235136 and typically represented less than 5% (α5β2γ1) and less than 20% (α1β2γ1, α2β2γ1) of the total binding. Assays were incubated to equilibrium for 1 hour at 4° C. and then, membranes were filtered onto unifilter (96-well white microplate with bonded GF/C filters preincubated 20-50 minutes in 0.3% Polyethylenimine) with a Filtermate 196 harvester (Packard BioScience) and washed 4 times with cold Potassium Phosphate 10 mM pH 7.4, KCl 100 mM binding buffer. After drying, filter-retained radioactivity was detected by liquid scintillation counting. K, values were calculated using Excel-Fit (Microsoft) and are the means of two determinations.
Representative test results, obtained by the above described assay measuring binding affinity to HEK293 cells expressing human (h) receptors, are shown in the Table 1.

A further experiment deals with h-GABA-A α2β2γ1 (Homo sapiens (Human), UniProt P47869+Q8N1C3). The experiment in a line: Two-electrode voltage clamp electrophysiology in Xenopus oocytes expressing GABAA receptors. Type of experiment: cell-based. Particulars: for Efficacy (GABA)%: % modulation of GABA EC20 = 100*(Fold increase−1), compound at 30-fold Ki; for Fold increase h-GABA-A α2β2γ1 oocyte @ 30-fold Ki: GABA EC20, test compound at about 30-fold its Ki α2β2γ1, at least 3 oocytes. The method, boiled down:
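Oocytes injected with α2β2γ1 subunit mRNA were recorded on days 3–5 by two-electrode voltage clamp at −80 mV, room temperature, pH 7.4 superfusion. Compound effect on GABA EC20 current computed point by point against a control GABA response; extremum expressed as % modulation of GABA EC20, n≥3 oocytes.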
Background: In two-electrode clamp one electrode senses voltage and the other passes current.

For `Cc1ccc(-c2nnc3n2-c2ccc(Cl)c(Br)c2C(c2c(F)cccc2F)=N[C@H]3C)nn1` [Example 88, (4S)-7-bromo-8-chloro-6-(2,6-difluorophenyl)-4-methyl-1-(6-methylpyridazin-3-yl)-4H-[1,2,4]triazolo[4,3-a][1,4]benzodiazepine], the affinity in experiment [1], expressed as Ki, was 3.6 nM. Also, on h-GABA-A α2β2γ1, the “Efficacy (GABA)%” value is recorded as 105% and the “Fold increase h-GABA-A α2β2γ1 oocyte @ 30-fold Ki” value was 2.05.

Take `OC1N=C(c2c(F)cccc2F)c2c(ccc(Br)c2Cl)-n2cnnc21` (stereo not drawn) [Example 31, 8-bromo-7-chloro-6-(2,6-difluorophenyl)-4H-[1,2,4]triazolo[4,3-a][1,4]benzodiazepin-4-ol]: the Ki in experiment [1] was 2.8 nM. Further, on h-GABA-A α2β2γ1, the “Efficacy (GABA)%” value came out at 74% and the “Fold increase h-GABA-A α2β2γ1 oocyte @ 30-fold Ki” value was 1.74.

In turn, `C[C@@H]1N=C(c2c(F)cccc2F)c2c(ccc(Cl)c2Cl)-n2c(-c3ccncn3)nnc21` [Example 52, (4S)-7,8-dichloro-6-(2,6-difluorophenyl)-4-methyl-1-pyrimidin-4-yl-4H-[1,2,4]triazolo[4,3-a][1,4]benzodiazepine] showed a Ki in experiment [1] of 1.1 nM. Moreover, at h-GABA-A α2β2γ1, the “Efficacy (GABA)%” value is recorded as 100% and the “Fold increase h-GABA-A α2β2γ1 oocyte @ 30-fold Ki” value was found to be 2.00.

As for `C[C@@H]1N=C(c2ncccc2F)c2c(ccc(Br)c2Cl)-n2c(C3CC3)nnc21` [Example 83, (4S)-8-bromo-7-chloro-1-cyclopropyl-6-(3-fluoro-2-pyridyl)-4-methyl-4H-[1,2,4]triazolo[4,3-a][1,4]benzodiazepine], in experiment [1], the Ki worked out at 2.7 nM. In addition, at h-GABA-A α2β2γ1, the “Efficacy (GABA)%” value amounted to 102% and the “Fold increase h-GABA-A α2β2γ1 oocyte @ 30-fold Ki” value is 2.02.

`C[C@@H]1N=C(c2c(F)cccc2F)c2c(ccc(C(F)(F)F)c2Cl)-n2c(CO)nnc21` [Example 103, [(4S)-7-chloro-6-(2,6-difluorophenyl)-4-methyl-8-(trifluoromethyl)-4H-[1,2,4]triazolo[4,3-a][1,4]benzodiazepin-1-yl]methanol] displayed a Ki in experiment [1] of 5.4 nM. Further, on h-GABA-A α2β2γ1, the “Efficacy (GABA)%” value is on record as 123% and the “Fold increase h-GABA-A α2β2γ1 oocyte @ 30-fold Ki” value came out at 2.23.

For the compound `Cc1nnc2n1-c1ccc(Cl)c(Cl)c1C(c1c(F)cccc1F)=N[C@H]2C` [Example 82, (4S)-7,8-dichloro-6-(2,6-difluorophenyl)-1,4-dimethyl-4H-[1,2,4]triazolo[4,3-a][1,4]benzodiazepine], affinity in experiment [1] was put at a Ki of 0.6 nM. Moreover, on h-GABA-A α2β2γ1, the “Efficacy (GABA)%” value was 45% and the “Fold increase h-GABA-A α2β2γ1 oocyte @ 30-fold Ki” value came out at 1.45.

The compound `Cc1nnc2n1-c1ccc(Br)c(Cl)c1C(c1c(F)cccc1F)=N[C@H]2CO` [Example 101, [(4R)-8-bromo-7-chloro-6-(2,6-difluorophenyl)-1-methyl-4H-[1,2,4]triazolo[4,3-a][1,4]benzodiazepin-4-yl]methanol] had a Ki in experiment [1] of 1 nM. Further, on h-GABA-A α2β2γ1, the “Efficacy (GABA)%” value was determined as 119% and the “Fold increase h-GABA-A α2β2γ1 oocyte @ 30-fold Ki” value stood at 2.19.

With `CCc1ccc2c(c1Cl)C(c1c(F)cccc1F)=N[C@@H](C)c1nnc(C)n1-2` [Example 109, (4S)-7-chloro-6-(2,6-difluorophenyl)-8-ethyl-1,4-dimethyl-4H-[1,2,4]triazolo[4,3-a][1,4]benzodiazepine], the affinity in experiment [1] corresponds to a Ki of 3.7 nM. For the same compound, on h-GABA-A α2β2γ1, the “Efficacy (GABA)%” value is 230% and the “Fold increase h-GABA-A α2β2γ1 oocyte @ 30-fold Ki” value is 3.30.

Compound `Cc1nnc2n1-c1ccc(Br)c(Cl)c1C(c1ncccc1F)=N[C@H]2C` [Example 85, (4S)-8-bromo-7-chloro-6-(3-fluoro-2-pyridyl)-1,4-dimethyl-4H-[1,2,4]triazolo[4,3-a][1,4]benzodiazepine] had a Ki in experiment [1] of 3.3 nM. Further, at h-GABA-A α2β2γ1, the “Efficacy (GABA)%” value was determined as 114% and the “Fold increase h-GABA-A α2β2γ1 oocyte @ 30-fold Ki” value was found to be 2.14.

In experiment [1], `Cc1nnc2n1-c1ccc(C(F)(F)F)c(Cl)c1C(c1c(F)cccc1F)=N[C@H]2C` [Example 92, (4S)-7-chloro-6-(2,6-difluorophenyl)-1,4-dimethyl-8-(trifluoromethyl)-4H-[1,2,4]triazolo[4,3-a][1,4]benzodiazepine] yielded a Ki of 1.8 nM. Further, at h-GABA-A α2β2γ1, the “Efficacy (GABA)%” value amounted to 92% and the “Fold increase h-GABA-A α2β2γ1 oocyte @ 30-fold Ki” value is on record as 1.92.

In experiment [1], `C[C@@H]1N=C(c2ncccc2F)c2c(ccc(Cl)c2Cl)-n2c(-c3cnn(C)c3)nnc21` [Example 67, (4S)-7,8-dichloro-6-(3-fluoro-2-pyridyl)-4-methyl-1-(1-methylpyrazol-4-yl)-4H-[1,2,4]triazolo[4,3-a][1,4]benzodiazepine] returned a Ki of 3.2 nM. Further, on h-GABA-A α2β2γ1, the “Efficacy (GABA)%” value amounted to 69% and the “Fold increase h-GABA-A α2β2γ1 oocyte @ 30-fold Ki” value stood at 1.69.

As to `C[C@@H]1N=C(c2ncccc2F)c2c(ccc(Cl)c2Cl)-n2c(-c3cccnn3)nnc21` [Example 63, (4S)-7,8-dichloro-6-(3-fluoro-2-pyridyl)-4-methyl-1-pyridazin-3-yl-4H-[1,2,4]triazolo[4,3-a][1,4]benzodiazepine], in experiment [1], the Ki worked out at 5.6 nM. Further, at h-GABA-A α2β2γ1, the “Efficacy (GABA)%” value was determined as 891% and the “Fold increase h-GABA-A α2β2γ1 oocyte @ 30-fold Ki” value is listed as 9.91.

As for `C[C@@H]1N=C(c2c(F)cccc2F)c2c(ccc(Cl)c2Br)-n2c(-c3ccncn3)nnc21` [Example 74, (4S)-7-bromo-8-chloro-6-(2,6-difluorophenyl)-4-methyl-1-pyrimidin-4-yl-4H-[1,2,4]triazolo[4,3-a][1,4]benzodiazepine], the affinity in experiment [1] corresponds to a Ki of 2.6 nM. Moreover, at h-GABA-A α2β2γ1, the “Efficacy (GABA)%” value worked out at 62% and the “Fold increase h-GABA-A α2β2γ1 oocyte @ 30-fold Ki” value was 1.62.

Turning to `Cc1nnc2n1-c1ccc(I)c(Cl)c1C(c1c(F)cccc1F)=N[C@H]2C` [Example 102, (4S)-7-chloro-6-(2,6-difluorophenyl)-8-iodo-1,4-dimethyl-4H-[1,2,4]triazolo[4,3-a][1,4]benzodiazepine], in experiment [1], the Ki came to 0.8 nM. At h-GABA-A α2β2γ1, the “Efficacy (GABA)%” value stood at 89% and the “Fold increase h-GABA-A α2β2γ1 oocyte @ 30-fold Ki” value is reported as 1.89.

For `Cc1nnc2n1-c1ccc(C(F)(F)F)c(Cl)c1C(c1c(F)cccc1F)=N[C@H]2CO` [Example 106, [(4R)-7-chloro-6-(2,6-difluorophenyl)-1-methyl-8-(trifluoromethyl)-4H-[1,2,4]triazlo[4,3-a][1,4]benzodiazepin-4-yl]methanol], the affinity in experiment [1] corresponds to a Ki of 4.3 nM. For the same compound, at h-GABA-A α2β2γ1, the “Efficacy (GABA)%” value is 121% and the “Fold increase h-GABA-A α2β2γ1 oocyte @ 30-fold Ki” value is 2.21.

In experiment [1], `C[C@@H]1N=C(c2ncccc2F)c2c(ccc(Br)c2Cl)-n2cnnc21` [Example 84, (4S)-8-bromo-7-chloro-6-(3-fluoro-2-pyridyl)-4-methyl-4H-[1,2,4]triazolo[4,3-a][1,4]benzodiazepine] registered a Ki of 6.5 nM. Moreover, on h-GABA-A α2β2γ1, the “Efficacy (GABA)%” value was determined as 203% and the “Fold increase h-GABA-A α2β2γ1 oocyte @ 30-fold Ki” value is 3.03.

`Cc1cc(-c2nnc3n2-c2ccc(Cl)c(Cl)c2C(c2c(F)cccc2F)=N[C@H]3C)on1` [Example 87, 5-[(4S)-7,8-dichloro-6-(2,6-difluorophenyl)-4-methyl-4H-[1,2,4]triazolo[4,3-a][1,4]benzodiazepin-1-yl]-3-methyl-isoxazole]: the affinity in experiment [1], expressed as Ki, was 2.1 nM. Also, at h-GABA-A α2β2γ1, the “Efficacy (GABA)%” value turned out to be 42% and the “Fold increase h-GABA-A α2β2γ1 oocyte @ 30-fold Ki” value was 1.42.

The Ki is a dissociation constant, usually derived from enzyme kinetics or from competition with a known ligand.
